Measured values reported in patent US8530622B2, “Proteasome-activating anti-aging peptides and compositions containing same” (ISP Investments Inc., priority 2009, dated 2013).
Ends that are not written are not given here.

Experiments:
[1] = target: T1, 20S proteasome (Homo sapiens, UniProt P28072+P28074+Q99436); test: Enzymatic activity of 20S proteasome on aged keratinocytes maintained in culture (AMC-labeled substrates); format: cell-based; conditions: 15 days culture, 1% peptide
T1 construct: After incubation of the cellular lysate with the synthetic substrate specific for the activity studied; endogenous in cells; host or cells: experimentally aged normal human keratinocytes (NHK) from human skin biopsies; activity measured in the cell lysate
Method: (§1) Normal Human Keratinocyte (NHK), cells are isolated from human skin biopsies. These cells are maintained in culture in a special keratinocyte-SFM medium (Invitrogen) at 37° C. under a humidified atmosphere of 5% CO2. Aged NHK cells are obtained by performing a series of repeated sub-cultures. Briefly the cells are seeded in 75 cm^2 flasks, at low density and cultured from 5 to 10 days between 2 passages. The cells are treated or not treated by the active principle, by adding the active principle directly into the culture medium 3 times per week. The cells are then maintained under these conditions for 45 days.
Experimentally aged keratinocytes maintained in culture for 15 days are treated with 1% of peptide SEQ ID No. 1. The enzymatic activities of 20S proteasome are then studied. In fact, 20S proteasome is the subunit responsible for enzymatic hydrolysis. Three enzymatic activities may be studied: Trypsin-like, chymotrypsin-like and peptidylglutamyl-peptide hydrolase (PGPH) activity. We are proposing to study these activities by a specific enzymatic assay of each activity.
The aged keratinocytes are maintained in culture for 15 days. The cell treatment is carried out by adding a solution at 1% of peptide SEQ ID No. 1 directly into the medium, renewed 3 times per week for the time of the experiment.
The assay of each activity was carried out by utilizing specific substrates labeled by a fluorescent compound 7-amido-4-methylcoumarin (AMC). After cleavage, the AMC excitation wavelength is 350 nm, the fluorescence is read at 440 nm. The fluorescence intensity is proportional to the quantity of fluorochrome obtained and consequently, this quantity is proportional to the quantity of hydrolyzed substrate.
The synthetic peptide Boc-Leu-Arg-Arg-AMC is specific for trypsin activity. […]
The cells are detached from the support in an extraction buffer. […] After incubation of the cellular lysate with the synthetic substrate specific for the activity studied, fluorescence is read with the Synergy spectrophotometer (BIOTEK, Vermont, USA) at 440 nm.

[2] = test system: experimentally aged keratinocytes; test: Antiaging effect: beta-galactosidase (X-gal) labeling of experimentally aged keratinocytes in culture; format: cell-based, human; conditions: keratinocytes aged 20 days, 1% peptide 3 times per week
Method: as §1
A study of the antiaging effect of the active principle was carried out by evaluating the expression of the beta-galactosidase protein on experimentally aged keratinocytes in culture. In fact, beta-galactosidase activity is known to be present in senescent cells while galactosidase activity is not found in pre-senescent, quiescent or immortal cells.
Keratinocytes experimentally aged in 8-well labteck are cultured and maintained for 20 days in the presence or not of 1% peptide of SEQ ID No. 1. The treatment is carried out 3 times per week by direct addition into the medium.
Untreated cells are maintained in culture for the same experiment time and will be used as controls. […]

[3] = test system: volunteers; test: Clinical test: wrinkle and fine line measurement by QUANTIRIDE; format: in vivo, human; parameters: Depth of wrinkles, Measurement / Number of wrinkles, Measurement: unit not given here; conditions: D 23-D 0, 2 mg/cm^2 twice a day, 12 volunteers
Method: 12 volunteers aged from 29 to 56 years applied either a placebo or the peptidic active principle of sequence ID No. 1 twice a day, morning and night, at a dose of 2 mg/cm^2 for 24 days. A clinical evaluation of the results enabled several wrinkle and fine line parameters to be measured.
The wrinkle and fine line measurement was carried out by QUANTIRIDE, which is an evaluation method that enables the number, length and depth of wrinkles to be measured by making a replica of the skin before and after treatment by using a silicone polymer.

Substance: Asp-Cys-Arg-NH2 [SEQ ID No. 1]
- trypsin-like activity of 20S proteasome, increase ([1]; substrate Boc-Leu-Arg-Arg-AMC): 155.3%
- chymotrypsin-like activity of 20S proteasome, increase ([1]; substrate Suc-Leu-Leu-Val-Try-AMC): 130%
- peptidylglutamyl-peptide hydrolase activity of 20S proteasome, increase ([1]; substrate Z-Leu-Leu-Glu-AMC): 144.6%
- beta-galactosidase activity in treated cells compared to untreated cells [2]: strongly reduced
- Depth of wrinkles, Measurement [3]: −6.5557
- Length of wrinkles, Measurement [3]: −0.104 mm
- Number of wrinkles, Measurement [3]: −9.5833
- Depth of wrinkles, % of volunteers with improvement ([3]; listed as Active peptide): 75%
- Length of wrinkles, % of volunteers with improvement ([3]; listed as Active peptide): 83.3%
- Number of wrinkles, % of volunteers with improvement ([3]; listed as Active peptide): 75%
- Depth of wrinkles, % of volunteers with improvement ([3]; listed as active principle): 75%
- Length of wrinkles, % of volunteers with improvement ([3]; listed as active principle): 83.3%
- Number of wrinkles, % of volunteers with improvement ([3]; listed as active principle): 75%
